According to PubChem BioAssay (NCI):
Where “and” joins values, the source holds several entries; their conditions need not be identical. Identical values can stand only once.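 1) Cells in 96-well plates. 2) Compound, 48 h, 5 concentrations. 3) Linear interpolation between surrounding doses. 4) Unreached endpoint = highest concentration. GI50 is the concentration that inhibits growth by half. At the TGI there is no net growth.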

What was measured:
Assay in all cases: NCI-60 cell line screen, 48 h
RPMI-8226 leukemia = tested on: RPMI-8226 leukemia
OVCAR-3 ovarian = tested on: OVCAR-3 ovarian
NCI-H226 lung = tested on: NCI-H226 lung
HT29 colon = tested on: HT29 colon
EKVX NSCLC = tested on: EKVX NSCLC
OVCAR-4 ovarian = tested on: OVCAR-4 ovarian
OVCAR-8 ovarian = tested on: OVCAR-8 ovarian
DU-145 prostate = tested on: DU-145 prostate
M14 melanoma = tested on: M14 melanoma
A549 NSCLC = tested on: A549 NSCLC

Structure (SMILES) | GI50 (RPMI-8226 leukemia) [µM] | TGI (RPMI-8226 leukemia) [µM] | GI50 (OVCAR-3 ovarian) | TGI (OVCAR-3 ovarian) | GI50 (NCI-H226 lung) | TGI (NCI-H226 lung) | GI50 (HT29 colon) | TGI (HT29 colon) | GI50 (EKVX NSCLC) [µM] | TGI (EKVX NSCLC) [µM] | GI50 (OVCAR-4 ovarian) | TGI (OVCAR-4 ovarian) | GI50 (OVCAR-8 ovarian) | TGI (OVCAR-8 ovarian) | GI50 (DU-145 prostate) | TGI (DU-145 prostate) | GI50 (M14 melanoma) [µM] | TGI (M14 melanoma) [µM] | GI50 (A549 NSCLC) [µM] | TGI (A549 NSCLC) [µM]
Nc1c(C(=O)Nc2cccc3ccccc23)sc2nc3c(cc12)CCCCC3 | 1.16 | > 50 | 0.542 µM | > 50 µM | 7.58 µM | > 50 µM | 1.05 µM | 4 µM | 1.35 | > 50 | 1.79 µM | > 50 µM | 1.68 µM | > 50 µM | 1.73 µM | > 50 µM | 0.339 | > 50 | 1.9 | > 50
C/C(=C\c1ccn(-c2ccc(N)cc2C(F)(F)F)n1)[C@@H]1C[C@@H]2O[C@]2(C)CCC[C@H](C)[C@H](O)[C@@H](C)C(=O)C(C)(C)[C@@H](O)CC(=O)O1 | 0.374 | > 11.1 | 0.344 µM | 2.66 µM | 6.35 µM | > 11.1 µM | 0.117 µM | 0.996 µM | 0.747 | > 11.1 | > 11.1 µM | > 11.1 µM | 0.506 µM | > 11.1 µM | 0.401 µM | 2.87 µM | 0.242 | 1.56 | 0.508 | > 11.1
Cc1cc(S(=O)(=O)/N=C(\N)n2nc(C)c(C)c2C)c(SCc2ccccc2)cc1Cl | 2.9 | > 100 | 46.4 µM | > 100 µM | > 100 µM | > 100 µM | > 100 µM | > 100 µM | 5.38 | > 100 | 19.7 µM | > 100 µM | > 100 µM | > 100 µM | > 100 µM | > 100 µM | > 100 | > 100 | 14 | > 100
c1cncc(-c2cc(-c3cc(-c4cccnc4)n[nH]3)[nH]n2)c1 | – | > 100 | – | > 100 µM | – | > 100 µM | – | > 100 µM | – | > 100 | – | > 100 µM | – | > 100 µM | – | > 100 µM | – | > 100 | – | > 100
CCOC(=O)c1ccc(C(O)CC(=O)OC(C)(C)C)[nH]1 (stereo not given) | > 100 | > 100 | 28.5 µM | 68.2 µM | 94.1 µM | > 100 µM | 59 µM | > 100 µM | 22.7 | 49.6 | 38.1 µM | > 100 µM | 56.7 µM | > 100 µM | 59.7 µM | > 100 µM | 27 | 67.3 | 32.1 | > 100
N#C/C(=C\c1ccc(Cl)cc1)n1nnc2cc(F)c(F)cc21 | 1.39 | 5.29 | 1.71 µM | 3.22 µM | 2.02 µM | 4.54 µM | 2.5 µM | 5.61 µM | 1.67 | 3.12 | 1.59 µM | 3.48 µM | 3.27 µM | > 100 µM | 1.69 µM | 3.11 µM | 1.9 | 4.39 | 2.7 | 21.5
O=C1CN2CCC1C/C2=C\c1ccnc2c(Cl)cccc12 (stereo not given) | 29.5 | > 100 | > 100 µM | > 100 µM | 90.5 µM | > 100 µM | 42.6 µM | > 100 µM | 33 | > 100 | 42.5 µM | > 100 µM | 61.6 µM | > 100 µM | > 100 µM | > 100 µM | > 100 | > 100 | > 100 | > 100
N#Cc1c(N)nc(N2CCOCC2)c(C#N)c1-c1cccc(O)c1 | 48.7 | > 100 | 61.9 µM | > 100 µM | > 100 µM | > 100 µM | > 100 µM | > 100 µM | 73.5 | > 100 | 26.5 µM | > 100 µM | > 100 µM | > 100 µM | > 100 µM | > 100 µM | > 100 | > 100 | > 100 | > 100
CCOC(=O)CCc1c(C)c2ccc(O)cc2oc1=O | – | > 100 | – | > 100 µM | – | > 100 µM | – | > 100 µM | – | > 100 | – | > 100 µM | – | > 100 µM | – | > 100 µM | – | > 100 | – | > 100
Cc1cc(Nc2ncc(Cl)c(Nc3ccccc3S(=O)(=O)C(C)C)n2)c(OC(C)C)cc1C1CCNCC1 | 0.753 | 2.85 | 1.61 µM and 1.37 µM | 3.01 µM and 2.66 µM | 1.29 µM and 1.56 µM and 1.7 µM | 3.1 µM and 3.95 µM and 4.25 µM | 0.237 µM and 0.304 µM | 1.24 µM and 1.27 µM | 1.14 | 2.71 | 2.14 µM and 1.15 µM | 7.61 µM and 2.46 µM | 1.74 µM and 1.41 µM | 3.59 µM and 4.23 µM | 1.41 µM and 1.53 µM and 1.29 µM | 2.79 µM and 2.88 µM and 2.55 µM | 1.37 | 2.9 | 1.34 | 2.69
CNC(=O)c1ccc(Nc2nc(OC3CCCC3)c3c(-c4ccc5nc(C)oc5c4)c[nH]c3n2)c(OC)c1 | 0.481 | > 20.4 | 0.427 µM | > 44.6 µM | 9.04 µM | > 100 µM | 4.99 µM | > 100 µM | > 100 | > 100 | 5.59 µM | > 100 µM | 0.6 µM | > 100 µM | 6.31 µM | > 100 µM | 16.9 | > 100 | 0.201 | > 100
Nc1ccn(C2OC(COP(=O)(O)O)C(O)C2O)c(=O)n1 (stereo not given) | – | > 100 | – | > 100 µM | – | > 100 µM | – | > 100 µM | – | > 100 | – | > 100 µM | – | > 100 µM | – | > 25.2 µM | – | > 44.9 | – | > 100
Cn1c(Cc2ccccc2)nc2cc3ccccc3cc21 | 13.1 | 34.3 | 36.4 µM | > 100 µM | 22.7 µM | 56.8 µM | 43.3 µM | > 100 µM | 22.2 | 52.5 | 70.4 µM | > 100 µM | 24.6 µM | 63.2 µM | 26.4 µM | 66.7 µM | 26.4 | 64.3 | 31.8 | > 100
